# Values quoted from earlier work, collected in patent publication US20160326157A1, “MONOBACTAMS AND METHODS OF THEIR SYNTHESIS AND USE” (PRESIDENT AND FELLOWS OF HARVARD COLLEGE, priority 2014, published 2016).
# Key:
# [1] = in vivo
# [2] = test system: Gram-positive or anaerobic bacteria
structure (smiles),measurement,setting,value
C[C@H]1[C@H](NC(=O)/C(=N\OC(C)(C)C(=O)O)c2csc(N)n2)C(=O)N1S(=O)(=O)O [Aztreonam],absorption from the gastrointestinal tract,[1],not absorbed
same,route of excretion,[1],renally excreted
same,concentration inhibiting most Enterobacteriaceae,Enterobacteriaceae,less than 0.5 g/mL
same,activity against Gram-positive or anaerobic bacteria,[2],inactive
